Laboratory results taken from publication PMC3095642, “New Synthetic Thrombin Inhibitors: Molecular Design and Experimental Verification” (PLoS ONE, 2011).
Like-named read-outs stand apart in the source and are kept apart here. Marks after values point to notes of the source that are not given here.

Key:
[1] = system: thrombin generation in normal donor plasma (PPP); experiment: Thrombin generation test in plasma (endogenous thrombin potential, ETP); type: biochemical, human
Description: The kinetics of thrombin generation in plasma was monitored using a modification of the standard method using a slow fluorogenic substrate BOC-Ile-Gly-Arg-AMC [8]. Normal donor plasma (PPP) was placed in the wells (90 µl/well) of a 96-well flat-bottom microtiter plate, after which 10 µl of the substance solution to be tested was added in different concentrations, along with 10 µl of the slow fluorogenic substrate (initial concentration 5 mM). In the control wells (without inhibitor), 10 µl of the solvent used was added (20 mM HEPES, pH 7.5 and 140 mM NaCl; or pure ethanol, or dimethylsulfoxide (DMSO) for different substances). The samples were incubated at 37°C for 3–5 min before being activated with thromboplastin, which was a 1∶250 dilution of a standard prothrombin time reagent (Renam, Moscow, Russia) in the same buffer supplemented with 90 mM CaCl2. The final concentration of tissue factor during activation was about 4 pM. Thromboplastin (25 µl) was added to all wells simultaneously using a multichannel micropipette. The moment of thromboplastin addition was taken as time zero. The kinetics of accumulation of the fluorescent reaction product 7-amino-4-methylcoumarine (AMC) was recorded for 65 min with a fluorometric Fluoroscan II reader (LabSystem, Finland) (λex. = 380 nm; λem. = 440 nm). The results were averaged over two parallel samples. The error of parallel measurements was within 2–5%. At every moment, the rate of product accumulation is proportional to the instant thrombin concentration present in plasma. Therefore, the curve for the temporal evolution of thrombin in the system may be obtained using differentiation of the curve for AMC accumulation. For each sample, arbitrary fluorescence units were converted to absolute AMC concentrations using the calibration signal obtained by adding a known AMC concentration into each particular plasma sample in the presence of the fluorogenic substrate and the tested substance. The corrections were done taking into account the substrate consumption and the nonlinearity of the AMC calibration curve. The area under the thrombin time curve over a period of 60 min (endogenous thrombin potential, ETP) was determined.

C57Bl/6 mice [2] = experiment: Acute toxicity in mice; type: in vivo, mouse; settings: females, mortality after 2 or less hours
Description: Preliminary safety examination for the best synthesized inhibitors was carried out by measuring their acute toxicity in C57Bl/6 mice (females, 26–28 g, intraperitoneal administration). The total number of animals used in each experiment was 20–35. The dose of inhibitor that caused mortality in half of the animals after 2 or less hours (LD50) was determined. […] For administration of different doses of an inhibitor, different volumes of the initial stock inhibitor solution were supplemented with corresponding volumes of vehicle (20% cremophore EL in normal saline) to obtain a constant administered volume of 1.8 ml in each case. To obtain the highest doses of inhibitors, the animals were injected with 2.3 ml of stock inhibitor solutions instead.

Human thrombin = target: T1, Human thrombin (Homo sapiens, UniProt P00734); experiment: Thrombin induced hydrolysis of specific substrates in buffer system; type: biochemical
T1 construct: Human thrombin (8.3 mg/ml) was obtained from Hematologic Technologies Inc; purchased Hematologic Technologies Inc. (Essex Junction, VT, USA)
Description: The kinetics of thrombin inhibition was determined from the hydrolysis reaction of a specific substrate by thrombin in the presence of the tested substances. The chromogenic substrate (Tosyl-Gly-Pro-Arg-p-nitroanilide) or fast fluorogenic substrate (BOC-Ala-Pro-Arg-AMC) was used.
Plate wells were filled with 20 mM HEPES (pH 8.0) containing 140 mM NaCl and 0.1% polyethylene glycol (molecular weight 6000 Da). Thereafter, substrate was sequentially added to each well (final concentration, 100 µM), followed by the substance being tested (to a final concentration that was varied) and thrombin (final concentration, 0.2 nM). The hydrolysis rate was monitored spectrophotometrically at 405 nm (absorption maximum of the reaction product – p-nitroaniline), or fluorometrically (λex = 380 nm; λem = 440 nm for fluorescent reaction product 7-amino-4-methylcoumarine).
The initial rate was determined as the slope of the linear portion of the kinetic curve over the first 10 to 20 min of measurement. The inhibitory effect was expressed as the percentage reduction of the initial hydrolysis rate. The reaction rate in the absence of inhibitor was taken as 100%. Each result is the mean of two parallel determinations.
The inhibitor concentration was determined decreasing hydrolysis rate to 50% (IC50). Values of the inhibition constants were calculated on the assumption about competitive mechanism of inhibition using equation (1) [drawing 1] (1) where: KI - the constant of inhibition,
• S - the concentration of a substrate (100 µM), • KM - the Michaelis constant of a specific substrate for thrombin (9.44 µM, average from ref. [23], [24] and our measurements for chromogenic and 13 µM for the fluorogenic substrate, respectively).

[3] = system: hemodilution-induced hypercoagulation in rats; experiment: Model of hemodilution-induced hypercoagulation in rats; type: in vivo, rat; settings: 23.0±4.5% blood loss, infusion of saline supplemented with 2 µM inhibitor, 10, 30 or 60 min after infusion
Description: In particular, 200 µl of PPP samples were placed in the wells of a 96-well plate. Then, 2 µl of a solution of fluorogenic substrate BOC-Ile-Gly-Arg-AMC in DMSO (initial concentration 41 mM) was added, and coagulation was triggered by 3 µl of activator, which was a 1∶20 dilution of a standard prothrombin time reagent (Renam, Moscow, Russia) in the buffer (20 mM HEPES, 140 mM NaCl, pH 7.5) supplemented with 1.4 M CaCl2. Measurement of fluorescence (120 min) and processing of the results obtained were carried out by the methods described earlier.
The anticoagulation activity of one of the new thrombin inhibitors (4i) was studied in vivo in a newly developed model of hemodilution-induced hypercoagulation in rats. Experiments were carried out on male outbred white rats weighing 250–450 g and housed in a vivarium. A polyethylene cannula was implanted into the right femoral artery of the rats, which were anesthetized with thiopental (40 mg/kg of body weight, i.p.), to a depth of 4–5 cm. […] Coagulation was analyzed in samples of blood collected before hemodilution for all animals. […] The volume of blood loss was calculated on the assumption that the total blood volume of the rat is equal to 6.5% of the body weight.

C57Bl/6 mice [4] = settings: ref [38]; cited from earlier work
[5] = system: thrombin generation in normal donor plasma (PPP); settings: ref [36], [37], read-out: IC50 for ETP reduction; cited from earlier work
[6] = ETP reduction by 50% in plasma in vitro, read-out: IC50 for reduction of thrombin generation in plasma
[7] = chromogenic substrate (SCHR), read-out: Inhibition of thrombin activity (in buffer system) IC50
[8] = chromogenic substrate Tosyl-Gly-Pro-Arg-p-nitroanilide, calculated assuming competitive inhibition, KM 9.44 µM, read-out: KI for thrombin inhibition in buffer system
[9] = fast fluorogenic substrate (SFLUO), 100 µM, thrombin 0.2 nM, read-out: Inhibition of specific thrombin substrate hydrolysis in buffer system IC50
[10] = fast fluorogenic substrate (SFLUO), calculated from IC50 assuming a competitive mechanism of inhibition, read-out: Inhibition of specific thrombin substrate hydrolysis in buffer system KI
[11] = Table S2, read-out: IC50 for ETP reduction in plasma
[12] = chromogenic substrate (SCHR), calculated assuming competitive type of inhibition, read-out: Inhibition of thrombin activity (in buffer system) Ki

Row | Compound | IC50 [1, 6] [nM] | LD50 (mouse), intraperitoneal administration (C57Bl/6 mice [2]) | IC50 (Human thrombin; [7]) [nM] | Ki (Human thrombin; [8]) [nM] | other results
1 | CNC(=N)SCCOc1cc(C)cc(OS(=O)(=O)c2ccccc2Cl)c1.I [8h] | 530 | >287.0 ^5) mg/kg | 65.8 | 5.7 | 
2 | Cc1cc(OCC[n+]2ccc(N)cc2)cc(OS(=O)(=O)c2ccccc2)c1.[I-] [4i] | 250 | 418.9 ± 33.0 mg/kg | 9 | 0.78 | Effect on development of hypercoagulation (change of ETP relative to initial level) [3]: canceled the hypercoagulation effect of hemodilution
3 | CC(C)(C)CC(C)(C)c1ccc(OCCSC(=N)N)cc1 [NSC 4482] |  |  |  |  | IC50 (Human thrombin; [9]): 3450 nM; Ki (Human thrombin; [10]): 400 nM
4 | Cc1cc(OCCCSC(=N)N)cc(OS(=O)(=O)c2ccccc2F)c1.I [8f] | 1240 | >653.1 ^5) mg/kg | 23.5 | 2.03 | 
5 | CC(=O)C1CCC2C3CC=C4CC(SC(=N)N)CCC4(C)C3CCC12C (stereo not drawn) [NSC 123477] |  |  |  |  | IC50 (Human thrombin; [9]): 75000 nM; Ki (Human thrombin; [10]): 8600 nM
6 | Cc1cc(OCCSC(=N)N)cc(OS(=O)(=O)c2ccccc2Cl)c1.I [8c] | 160 | 793.5 ± 118.5 mg/kg | 3.8 | 0.33 | 
7 | Cc1cc(OCC[n+]2ccc(N)cc2)cc(OS(=O)(=O)c2ccccc2F)c1.[I-] [4e] | 100 | 523.1 ± 92.3 mg/kg | 3.5 | 0.3 | 
8 | N=C(N)c1ccc(-c2ccc(-c3ccc(C(=N)N)cc3)o2)cc1 [NSC 305831] |  |  |  |  | IC50 (Human thrombin; chromogenic substrate (SCHR), 100 µM, thrombin 0.2 nM, read-out: Inhibition of specific thrombin substrate hydrolysis in buffer system IC50): 72000 nM; Ki (Human thrombin; chromogenic substrate (SCHR), calculated from IC50 assuming a competitive mechanism of inhibition, read-out: Inhibition of specific thrombin substrate hydrolysis in buffer system KI): 6200 nM
9 | Cc1cc(OCCSC(=N)N)cc(OS(=O)(=O)c2ccccc2)c1.I [8d] | 900 | >1111.1 mg/kg | 11 | 0.95 | 
10 | Cc1cc(OCCSC(=N)N)cc(OS(=O)(=O)c2ccccc2S(C)(=O)=O)c1.I [8b] | 800 | >458.0 ^5) mg/kg | 17 | 1.5 | 
11 | Cc1cc(OCC[n+]2ccc(N)cc2)cc(OS(=O)(=O)c2ccc(Cl)cc2)c1.[I-] [4h] | 150 | 372.7 ± 84.6 mg/kg | 9 | 0.78 | 
12 | Cc1cc(OCCC[n+]2ccc(N)cc2)cc(OS(=O)(=O)c2ccccc2Cl)c1 [4d] |  |  | 3400 |  | IC50 [1, 11]: 40000 nM; Ki (Human thrombin; [12]): 293 nM
13 | Cc1cc(OCC[n+]2ccc(N)cc2)cc(OS(=O)(=O)c2ccccc2Cl)c1.[I-] [4f] | 260 | 679.0 ± 152.7 mg/kg | 2.44 | 0.21 | 
14 | Cc1ccc2nc(-c3ccc(CSC(=N)N)cc3)oc(=O)c2c1 [NSC 328131] |  |  |  |  | IC50 (Human thrombin; [9]): ~35000 nM; Ki (Human thrombin; [10]): 4000 nM
15 | Cc1cc(OCCCSC(=N)N)cc(OS(=O)(=O)c2ccccc2Cl)c1 [8e] |  |  | 11.6 |  | IC50 [1, 11]: 4100 nM; Ki (Human thrombin; [12]): 1 nM
16 | Cc1cc(OCC[n+]2ccc(N)cc2)cc(OS(=O)(=O)c2ccccc2S(C)(=O)=O)c1.[I-] [4g] | 160 | 166.7 ± 20.0 mg/kg | 8.7 | 0.75 | 
17 | CC1CNc2c(cccc2S(=O)(=O)N[C@@H](CCCNC(=N)N)C(=O)N2CC[C@@H](C)C[C@@H]2C(=O)O)C1 (stereo partly drawn) [Argatroban] | 650 |  |  |  | LD50 (mouse), intraperitoneal administration (C57Bl/6 mice [4]): 475 mg/kg; IC50 [5]: 600 to 970 nM
18 | CNC(=N)SCCCOc1cc(C)cc(OS(=O)(=O)c2ccccc2Cl)c1 [8g] |  |  | 5500 |  | IC50 [1, 11]: 25200 nM; Ki (Human thrombin; [12]): 474 nM
19 | CC12CCC3C(CC=C4CC(SC(=N)N)CCC43C)C1CCC2=O (stereo not drawn) [NSC 41339] |  |  |  |  | IC50 (Human thrombin; [9]): 240000 nM; Ki (Human thrombin; [10]): 27600 nM
20 | Cc1cc(OCCCSC(=N)N)cc(OS(=O)(=O)c2ccccc2)c1 [8a] |  |  | 97 |  | IC50 [1, 11]: 8000 nM; Ki (Human thrombin; [12]): 8.4 nM
